The values below come from patent US11236046B2, “Substituted heterocyclic sulfonamide compounds useful as TRPA1 modulators” (Genentech, Inc., priority 2013, dated 2022).

Structures are written as SMILES.

Sequence of human TRPA1 (O75762 whole entry): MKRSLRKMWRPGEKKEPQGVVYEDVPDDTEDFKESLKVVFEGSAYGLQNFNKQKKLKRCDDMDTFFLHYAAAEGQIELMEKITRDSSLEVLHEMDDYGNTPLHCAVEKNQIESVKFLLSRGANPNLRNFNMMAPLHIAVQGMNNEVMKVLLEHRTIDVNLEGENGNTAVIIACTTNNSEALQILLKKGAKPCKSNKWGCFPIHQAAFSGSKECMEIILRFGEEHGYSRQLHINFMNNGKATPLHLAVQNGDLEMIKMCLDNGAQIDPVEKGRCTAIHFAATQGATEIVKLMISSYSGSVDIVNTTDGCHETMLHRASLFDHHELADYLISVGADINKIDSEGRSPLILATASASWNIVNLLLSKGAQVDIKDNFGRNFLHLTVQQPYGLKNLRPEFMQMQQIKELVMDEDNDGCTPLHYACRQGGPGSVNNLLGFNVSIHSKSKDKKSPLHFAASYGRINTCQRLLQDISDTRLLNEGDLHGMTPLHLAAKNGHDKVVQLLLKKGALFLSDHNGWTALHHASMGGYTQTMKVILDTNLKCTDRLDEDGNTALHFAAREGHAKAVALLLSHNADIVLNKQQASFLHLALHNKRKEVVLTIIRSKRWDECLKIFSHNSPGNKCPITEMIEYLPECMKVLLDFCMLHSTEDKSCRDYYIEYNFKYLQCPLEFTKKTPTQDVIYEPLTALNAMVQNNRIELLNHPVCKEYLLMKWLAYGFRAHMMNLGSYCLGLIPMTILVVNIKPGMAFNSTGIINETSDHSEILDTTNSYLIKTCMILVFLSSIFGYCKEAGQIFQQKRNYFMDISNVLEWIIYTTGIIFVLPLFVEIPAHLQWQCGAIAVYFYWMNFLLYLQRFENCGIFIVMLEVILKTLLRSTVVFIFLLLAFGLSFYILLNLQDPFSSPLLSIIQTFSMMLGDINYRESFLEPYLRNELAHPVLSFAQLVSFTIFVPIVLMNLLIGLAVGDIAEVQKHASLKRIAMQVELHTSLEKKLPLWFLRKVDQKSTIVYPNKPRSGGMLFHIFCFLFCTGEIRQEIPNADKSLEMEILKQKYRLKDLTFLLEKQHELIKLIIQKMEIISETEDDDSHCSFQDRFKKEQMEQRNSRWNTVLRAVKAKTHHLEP

This assay deals with human TRPA1 (Homo sapiens (Human), UniProt O75762). The assay is described as follows: FLIPR Tetra calcium influx assay, block of cinnamaldehyde-induced calcium influx in CHO cells expressing TRPA1 (human). Conditions: 20 min compound incubation, 75 uM cinnamaldehyde (~EC80), Hill coefficient fixed to 1.5, read-out: hTRPA1 AUC IC50. The assay is classed as cell-based. In a few lines:
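CHO cells loaded with calcium dye, preincubated with compounds 20 min at room temperature in HBSS/20 mM HEPES pH 7.4 with 0.02% BSA. Channels activated by ~EC80 cinnamaldehyde (75 uM human, 45 uM rat); block of calcium influx read on FLIPR Tetra, IC50 fitted with fixed Hill coefficient.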
By IC50 is commonly meant the concentration that gives 50% inhibition. As to `COc1cc(CNC(=O)[C@@H]2C[C@@H](F)CN2S(=O)(=O)c2ccc(F)cc2)cc(-c2ccc(C(F)(F)F)nc2)c1` [Example 116, (2S,4R)-4-fluoro-1-(4-fluorophenyl)sulfonyl-N-[[3-methoxy-5-[6-(trifluoromethyl)-3-pyridyl]phenyl]methyl]pyrrolidine-2-carboxamide], the IC50 worked out at 47 nM.

On to `O=C(NCc1ncc(F)c(-c2ccc(C(F)(F)F)nc2)c1F)[C@@H]1C[C@@H](F)CN1S(=O)(=O)c1ccc(F)cc1` [Example 117, (2S,4R)—N-([3,5-difluoro-4-[6-(trifluoromethyl)pyridin-3-yl]pyridin-2-yl]methyl)-4-fluoro-1-[(4-fluorobenzene)sulfonyl]pyrrolidine-2-carboxamide], for which the IC50 worked out at 224 nM. As to `COc1cc(-c2ccc(C(F)(F)F)nc2)cc(CNC(=O)[C@@H]2C[C@@H](F)CN2S(=O)(=O)c2ccc(F)cc2)n1` [Example 118, (2S,4R)-4-fluoro-1-[(4-fluorobenzene)sulfonyl]-N-([6-methoxy-4-[6-(trifluoromethyl)pyridin-3-yl]pyridin-2-yl]methyl)pyrrolidine-2-carboxamide], the concentration for half-maximal inhibition (IC50) was 37 nM.

Consider `O=C(NCc1cc(F)nc(-c2ccc(C(F)(F)F)nc2)c1)[C@@H]1C[C@@H](F)CN1S(=O)(=O)c1ccc(F)cc1` [Example 119, (2S,4R)-4-fluoro-N-([2-fluoro-6-[6-(trifluoromethyl)pyridin-3-yl]pyridin-4-yl]methyl)-1-[(4-fluorobenzene)sulfonyl]pyrrolidine-2-carboxamide], for which the 50% inhibitory concentration (IC50) was 52 nM. The same measure for `O=C(NCc1cc(-c2ccc(C(F)(F)F)nc2)cc(F)n1)[C@@H]1C[C@@H](F)CN1S(=O)(=O)c1ccc(F)cc1` [Example 120, (2S,4R)-4-fluoro-1-(4-fluorophenyl)sulfonyl-N-[[6-fluoro-4-[6-(trifluoromethyl)-3-pyridyl]-2-pyridyl]methyl]pyrrolidine-2-carboxamide]: 49 nM. The same measure for `O=C(NCc1cc(N2C3CCC2CC(C(F)(F)F)C3)c(F)cn1)[C@@H]1C[C@@H](F)CN1S(=O)(=O)c1ccc(F)cc1` (stereo partly drawn) [Example 121, (2S,4R)-4-fluoro-N-([5-fluoro-4-[3-(trifluoromethyl)-8-azabicyclo[3.2.1]octan-8-yl]pyridin-2-yl]methyl)-1-[(4-fluorobenzene)sulfonyl]pyrrolidine-2-carboxamide]: 741 nM; for `O=C(NCc1cc(F)cc(-c2cnc(C(F)(F)F)cn2)c1)[C@@H]1C[C@@H](F)CN1S(=O)(=O)c1ccc(F)cc1` [Example 122, (2S,4R)-4-fluoro-1-(4-fluorophenyl)sulfonyl-N-[[3-fluoro-5-[5-(trifluoromethyl)pyrazin-2-yl]phenyl]methyl]pyrrolidine-2-carboxamide]: 14 nM; for `O=C(NCc1cc(-c2ccc(C(F)(F)F)nc2)ncn1)[C@@H]1C[C@H]2C[C@H]2N1S(=O)(=O)c1ccc(F)cc1` [Example 123, (1R,3S,5R)-2-(4-fluorophenyl)sulfonyl-N-[[6-[6-(trifluoromethyl)-3-pyridyl]pyrimidin-4-yl]methyl]-2-azabicyclo[3.1.0]hexane-3-carboxamide]: 156 nM. In the case of `COc1nn(-c2ccc(C(F)(F)F)nc2)cc1CNC(=O)[C@]1(C)C[C@@H](F)CN1S(=O)(=O)c1ccc(F)cc1` [Example 125, (2S,4R)-4-fluoro-1-[(4-fluorobenzene)sulfonyl]-N-([3-methoxy-1-[6-(trifluoromethyl)pyridin-3-yl]-1H-pyrazol-4-yl]methyl)-2-methylpyrrolidine-2-carboxamide], the IC50 came to 9 nM. Take `C[C@@]1(C(=O)NCc2cc(-c3ccc(C(F)(F)F)nc3)c(F)cn2)C[C@@H](F)CN1S(=O)(=O)c1ccc(F)cc1` [Example 126, (2S,4R)-4-fluoro-1-(4-fluorophenyl)sulfonyl-N-[[5-fluoro-4-[6-(trifluoromethyl)-3-pyridyl]-2-pyridyl]methyl]-2-methyl-pyrrolidine-2-carboxamide]: the IC50 is 25 nM.

As to `COc1nc(CNC(=O)[C@@H]2C[C@@H](F)CN2S(=O)(=O)c2ccc(F)cc2)cc(-c2ccc(C(F)(F)F)nc2)n1` [Example 127, (2S,4R)-4-fluoro-1-[(4-fluorobenzene)sulfonyl]-N-([2-methoxy-6-[6-(trifluoromethyl)pyridin-3-yl]pyrimidin-4-yl]methyl)pyrrolidine-2-carboxamide], the 50% inhibitory concentration (IC50) was determined as 97 nM.

`O=C(NCc1cc(N2CCC(F)(F)CC2)c(F)cn1)[C@@H]1C[C@@H](F)CN1S(=O)(=O)c1ccc(F)cc1` [Example 128, (2S,4R)—N-[[4-(4,4-difluoro-1-piperidyl)-5-fluoro-2-pyridyl]methyl]-4-fluoro-1-(4-fluorophenyl)sulfonyl-pyrrolidine-2-carboxamide]: the IC50 is 404 nM. Then `O=C(NCc1cc(N2CCC3(CC2)CC3)c(F)cn1)[C@@H]1C[C@@H](F)CN1S(=O)(=O)c1ccc(F)cc1` [Example 129, (2S,4R)—N-[[4-(6-azaspiro[2.5]octan-6-yl)-5-fluoro-2-pyridyl]methyl]-4-fluoro-1-(4-fluorophenyl)sulfonyl-pyrrolidine-2-carboxamide], with 99 nM. With `O=C(NCc1cc(N2CCC(C(F)(F)F)CC2)c(C(F)(F)F)cn1)[C@@H]1C[C@@H](F)CN1S(=O)(=O)c1ccc(F)cc1` [Example 130, (2S,4R)-4-fluoro-1-(4-fluorophenyl)sulfonyl-N-[[5-(trifluoromethyl)-4-[4-(trifluoromethyl)-1-piperidyl]-2-pyridyl]methyl]pyrrolidine-2-carboxamide], the half-maximal inhibitory concentration (IC50) stood at 52 nM.

For `O=C(NCc1cc(-c2ccc(C(F)(F)F)cn2)ccn1)[C@@H]1C[C@@H](F)CN1S(=O)(=O)c1ccc(F)cc1` [Example 131, (2S,4R)-4-fluoro-1-(4-fluorophenyl)sulfonyl-N-[[4-[5-(trifluoromethyl)-2-pyridyl]-2-pyridyl]methyl]pyrrolidine-2-carboxamide], the IC50 came to 102 nM. Regarding `COc1nn(-c2cnc(C(F)(F)F)nc2)cc1CNC(=O)[C@@H]1C[C@@H](F)CN1S(=O)(=O)c1ccc(F)cc1` [Example 132, (2S,4R)-4-fluoro-1-[(4-fluorobenzene)sulfonyl]-N-([3-methoxy-1-[2-(trifluoromethyl)pyrimidin-5-yl]-1H-pyrazol-4-yl]methyl)pyrrolidine-2-carboxamide], the concentration for half-maximal inhibition (IC50) turned out to be 126 nM. As for `O=C(NCc1cc(C23CCC(C(F)F)(CC2)CC3)ncn1)[C@@H]1C[C@@H](F)CN1S(=O)(=O)c1ccc(F)cc1` [Example 133, (2S,4R)—N-[[6-[4-(difluoromethyl)-1-bicyclo[2.2.2]octanyl]pyrimidin-4-yl]methyl]-4-fluoro-1-(4-fluorophenyl)sulfonyl-pyrrolidine-2-carboxamide], the IC50 is 59 nM. Take `COc1nn(-c2ccc(C(F)(F)F)cc2)cc1CNC(=O)[C@@H]1C[C@@H](F)CN1S(=O)(=O)c1cccc(F)c1` [Example 134, (2S,4R)-4-fluoro-1-[(3-fluorobenzene)sulfonyl]-N-([3-methoxy-1-[4-(trifluoromethyl)phenyl]-1H-pyrazol-4-yl]methyl)pyrrolidine-2-carboxamide]: the IC50 turned out to be 23 nM. On to `COc1nn(-c2ccc(C(F)(F)F)cc2)cc1CNC(=O)[C@@H]1C[C@@H](F)CN1S(=O)(=O)c1ccc(F)cc1` [Example 135, (2S,4R)-4-fluoro-1-[(4-fluorobenzene)sulfonyl]-N-([3-methoxy-1-[4-(trifluoromethyl)phenyl]-1H-pyrazol-4-yl]methyl)pyrrolidine-2-carboxamide], for which the IC50 is 11 nM. In the case of `O=C(NCc1cc(-c2ccc(C(F)(F)F)nc2)ncn1)[C@@H]1[C@@H](F)CCN1S(=O)(=O)c1ccc(F)cc1` [Example 136, (2R,3S)-3-fluoro-1-(4-fluorophenylsulfonyl)-N-((6-(6-(trifluoromethyl)pyridin-3-yl)pyrimidin-4-yl)methyl)pyrrolidine-2-carboxamide], the 50% inhibitory concentration (IC50) stood at 21 nM. `O=C(NCc1cn(-c2ccc(C(F)(F)F)cc2)nc1Cl)[C@@H]1C[C@@H](F)CN1S(=O)(=O)c1ccc(F)cc1` [Example 137, (2S,4R)—N-([3-chloro-1-[4-(trifluoromethyl)phenyl]-1H-pyrazol-4-yl]methyl)-4-fluoro-1-[(4-fluorobenzene)sulfonyl]pyrrolidine-2-carboxamide]: the IC50 was determined as 78 nM. With `O=C(NCc1cc(F)cc(-c2ccc(C(F)(F)F)nc2)c1)[C@@H]1C[C@@H](F)CN1S(=O)(=O)c1ccc(F)cc1` [Example 139, (2S,4R)-4-fluoro-1-(4-fluorophenyl)sulfonyl-N-[[3-fluoro-5-[6-(trifluoromethyl)-3-pyridyl]phenyl]methyl]pyrrolidine-2-carboxamide], the IC50 turned out to be 16 nM. The same measure for `O=C(NCc1cc(-c2ccc(C(F)(F)F)nc2)c(F)cn1)[C@@H]1C[C@@H](F)CN1S(=O)(=O)c1ccc(F)cc1` [Example 140, (2S,4R)-4-fluoro-N-((5′-fluoro-6-(trifluoromethyl)-3,4′-bipyridin-2′-yl)methyl)-1-(4-fluorophenylsulfonyl)pyrrolidine-2-carboxamide]: 20 nM. `O=C(NCc1cc(-c2ccc(C(F)(F)F)nc2)ncc1F)[C@@H]1C[C@@H](F)CN1S(=O)(=O)c1ccc(F)cc1` [Example 141, (2S,4R)-4-fluoro-N-((5-fluoro-6′-(trifluoromethyl)-2,3′-bipyridin-4-yl)methyl)-1-(4-fluorophenylsulfonyl)pyrrolidine-2-carboxamide]: the IC50 was 68 nM. For `O=C(NCc1cc(-c2ccc(C(F)(F)F)cc2)ncn1)[C@@H]1C[C@@H](F)CN1S(=O)(=O)c1ccc(F)cc1` [Example 143, (2S,4R)-4-fluoro-1-(4-fluorophenylsulfonyl)-N-((6-(4-(trifluoromethyl)phenyl)pyrimidin-4-yl)methyl)pyrrolidine-2-carboxamide], the concentration for half-maximal inhibition (IC50) stood at 15 nM.
